Test results reported in BindingDB's records for doi:10.3109/14756369809035823 (Orstom, 1998).
Several values for one entry are separate records, joined by “and”; a condition that tells them apart may be missing. Equal entries are not always repeated.

What follows are compounds tested against Trypanothione reductase (Crithidia fasciculata, UniProt P39040) (assay: Inhibition Assay). Settings: pH 7.8; 25 °C.
Trypanothione reductase, sequence (P39040 whole entry): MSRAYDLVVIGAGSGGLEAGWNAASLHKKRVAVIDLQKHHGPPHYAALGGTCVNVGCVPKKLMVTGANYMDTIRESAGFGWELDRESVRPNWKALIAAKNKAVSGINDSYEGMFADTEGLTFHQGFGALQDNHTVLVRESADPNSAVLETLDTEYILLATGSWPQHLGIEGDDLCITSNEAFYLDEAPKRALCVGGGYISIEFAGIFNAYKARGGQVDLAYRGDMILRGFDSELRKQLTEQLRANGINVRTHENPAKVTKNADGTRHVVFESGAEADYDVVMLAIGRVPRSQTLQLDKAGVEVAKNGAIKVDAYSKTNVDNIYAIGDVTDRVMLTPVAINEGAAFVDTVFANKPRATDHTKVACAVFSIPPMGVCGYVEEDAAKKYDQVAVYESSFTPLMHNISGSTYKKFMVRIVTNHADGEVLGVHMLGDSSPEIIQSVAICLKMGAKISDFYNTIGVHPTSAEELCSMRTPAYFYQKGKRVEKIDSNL
Text: Crithidia fasciculata trypanothione reductase (cfTR) was purifed from E.coli using the expression system. The activity of the cfTR was observed from the rate of oxidation of the co-substrate NADPH to NADP+ as measured by a decrease in absorbance at 340nm.
Compound `COc1ccc2cc1Oc1ccc(cc1)C[C@H]1c3c(cc(OC)c(O)c3Oc3cc4c(cc3OC)CCN(C)[C@@H]4C2)CCN1C` has an IC50 of 55 µM. `COc1cc2c3c(c1OC)Oc1ccc(cc1)C[C@@H]1c4c(cc(OC)c(OC)c4Oc4ccc(cc4)C[C@H]3N(C)CC2)CCN1C` [Cycleanine (R,R)] was tested, and the IC50 was 303 µM. With `COc1ccc2cc1Oc1ccc(cc1)C[C@H]1c3c(cc4c(c3Oc3cc5c(cc3OC)CCN(C)[C@H]5C2)OCO4)CCN1C` [Cepharanthine] the IC50 was 15 µM. Compound `COc1cc2c(cc1O)[C@@H](Cc1ccc(Oc3cc(C[C@H]4NCCc5cc(OC)c(O)cc54)ccc3O)cc1)NCC2` [Lindoldhamine (R,R)] has an IC50 of 27 µM. With `COc1ccc2cc1Oc1ccc(cc1)C[C@H]1c3c(cc(O)c(OC)c3Oc3cc4c(cc3OC)CCN(C)[C@@H]4C2)CCN1C` [Gyrocarpine (S,R)] the IC50 was 58 µM. For `COc1ccc2cc1Oc1ccc(cc1)C[C@H]1c3cc(c(OC)cc3CCN1C)Oc1c(OC)c(OC)cc3c1[C@@H](C2)N(C)CC3`, the IC50 was 122 µM and 235 µM. With `COc1cc2c3cc1Oc1c(O)c(OC)cc4c1[C@H](Cc1ccc(cc1)Oc1cc(ccc1O)C[C@H]3NCC2)N(C)CC4` (racemic) [Daphnoline (R,S)] the IC50 was 50 µM. In the case of `COc1cc2c3cc1Oc1c(O)c(OC)cc4c1[C@H](Cc1ccc(OC)c(c1)-c1cc(ccc1O)C[C@H]3N(C)CC2)N(C)CC4`, the IC50 is reported as 60 µM. In the case of `COc1cc2c3cc1Oc1cc(ccc1O)C[C@@H]1c4c(cc(OC)c(O)c4Oc4ccc(cc4)C[C@H]3N(C)CC2)CCN1C` [(-)-BEBEERINE], the IC50 is reported as 60 µM. With `COc1ccc2cc1Oc1ccc(cc1)C[C@H]1c3cc(c(OC)cc3CCN1C)Oc1c(O)c(OC)cc3c1[C@@H](C2)N(C)CC3` [Limacine (R,R)] the IC50 was 90 µM.
